This assay deals with Panc02 murine pancreatic adenocarcinoma cells. Briefly: hemi-splenectomy liver metastasis mouse model, 90 day survival. The class given is in vivo, C57/B16 mice. The conditions noted are these: 28-day dosing scheme, followed 90 days.

Excerpt: Survival Proportions: 90 Day survival of all groups.
The inventors performed hemi-splenectomy with the injection of 2×10^6 Panc02 murine pancreatic adenocarcinoma cells on C57/B16 mice, aged 9-10 weeks to model metastasis of pancreatic tumor cells to the liver. Mice were divided into treatment groups and dosed with cyclophosphamide and GVAX vaccine as well as an oral IDO1 inhibitor PF-06840003, according to a 28-day dosing scheme.
An oral methocel vehicle was given as a placebo treatment. The IDO inhibitor PF-06840003 and oral methocel compounds were administered twice daily by oral gavage, starting on post-operative day 3 and extending through post-operative day 28. Cyclophosphamide was administered on post-operative day 3. GVAX vaccine was administered on post-operative days 4, 7, 14 and 21. Mice were followed for survival for 90 days.

With `O=C1CC(c2c[nH]c3ccc(F)cc23)C(=O)N1` (stereo not shown) [PF-06840003], the survival entry is given as “no significant effect on survival”.

The record behind these values is patent US20190365878A1, “PHARMACEUTICAL TREATMENTS FOR PREVENTING OR TREATING PANCREATIC CANCER” (THE JOHNS HOPKINS UNIVERSITY, priority 2016, published 2019).
